From US12655111B2, “Phenazine-based compounds” (CMBLU Energy AG, priority 2020, dated 2026)

Assay: Redox flow battery cell test (flow-through laboratory cell), galvanostatic charge/discharge cycling with phenazine anolyte and ferrocyanide catholyte
Assay type: physicochemical
Conditions: range: (i) upper charging value minus initial discharging value, (ii) initial charging value minus ultimate discharging value; from Table 1 (for II 0.87M)
Source text: FT-Cells (“Flow Through”):
For electrochemical characterization, a small laboratory cell was used. A graphite felt (with an area of 6 cm^2, 6 mm in thickness, supplier: SGL Sigracell GFA 6EA) in combination with a bipolar plate (4.1 cm×4.1 cm, SGL Sigracell TF6) was employed as both the positive and negative electrode. A cation exchange membrane (630K or 620PE, supplier: fumatech) was used to separate the positive and negative electrolytes. The membrane was conditioned in 0.5 M Base (KOH/NaOH=50 mol %/50 mol %) for at least 150 h prior to each test. An anolyte volume of 12 mL was used for every experiment while the pH of the anolyte solution is adjusted using a 1:1 mixture of KOH/NaOH or solely KOH. The catholyte compositions are listed in table 1 and the catholyte was always employed in at least 1.05 fold stoichiometric excess in order to obtain charge limitation solely due to the phenazine electrolyte (see table 1). The catholyte volume for (IV) is 60 mL (0.4 M KOH; 0.4 M NaOH), for (III) 30 mL (0.2 M KOH and 0.2 M NaOH), and for (I) 20 mL (0.3 M KOH and 0.3 M NaOH). Both electrolytes were pumped by peristaltic pumps (Drifton BT100-1L, Cole Parmer Ismatec MCP and BVP Process IP 65) at a rate of 24 mL/min to the corresponding electrodes, respectively. The electrolyte reservoirs were purged with N2 gas for 1 h before start of charging and the inert atmosphere was maintained during the course of the experiments.
Electrochemical testing was performed on a BaSyTec (BaSyTec GmbH, 89176 Asselfingen, Germany) or a Bio-Logic (Bio-Logic Science Instruments, Seyssinet-Pariset 38170, France) battery test system. For galvanostatic cycling, the cell was charged at a current density of […] and discharged at the same current density with the in table 1 listed voltage cut-offs. […]

SMILES	difference in plateaus [V]
CN(CCO)c1cc2nc3ccc(S(=O)(=O)O)cc3nc2cc1O [IV, 7-[(2-hydroxyethyl)(methyl)amino]-8-hydroxyphenazine-2-sulfonic acid]	0.20-0.25 V
O=S(=O)(O)c1ccc2nc3cc(O)c(O)cc3nc2c1 [DHPS, 7,8-Dihydroxyphenazine-2-sulfonic acid, reference compound]	0.29-0.32 V
CN(C)c1cc2nc3ccc(S(=O)(=O)O)cc3nc2cc1O [I, 7-(dimethylamino)-8-hydroxyphenazine-2-sulfonic acid]	0.15-0.16 V
